Measured values published in ChEMBL document CHEMBL1121888, “(alpha S)-erythro-alpha-methylepinephrine: preparation and stereoselective binding to adrenergic receptors in rat forebrain” (J Med Chem, 1981).

biological target: T1, Adrenergic receptor alpha-1 (Rattus norvegicus, UniProt P15823+P23944+P43140); experiment: Compound was evaluated for inhibition of [3H]prazosin binding to Alpha-1 adrenergic receptor in rat forebrain homogenate.; assay type: tissue-based, Brain
T1 sequence (P15823 whole entry): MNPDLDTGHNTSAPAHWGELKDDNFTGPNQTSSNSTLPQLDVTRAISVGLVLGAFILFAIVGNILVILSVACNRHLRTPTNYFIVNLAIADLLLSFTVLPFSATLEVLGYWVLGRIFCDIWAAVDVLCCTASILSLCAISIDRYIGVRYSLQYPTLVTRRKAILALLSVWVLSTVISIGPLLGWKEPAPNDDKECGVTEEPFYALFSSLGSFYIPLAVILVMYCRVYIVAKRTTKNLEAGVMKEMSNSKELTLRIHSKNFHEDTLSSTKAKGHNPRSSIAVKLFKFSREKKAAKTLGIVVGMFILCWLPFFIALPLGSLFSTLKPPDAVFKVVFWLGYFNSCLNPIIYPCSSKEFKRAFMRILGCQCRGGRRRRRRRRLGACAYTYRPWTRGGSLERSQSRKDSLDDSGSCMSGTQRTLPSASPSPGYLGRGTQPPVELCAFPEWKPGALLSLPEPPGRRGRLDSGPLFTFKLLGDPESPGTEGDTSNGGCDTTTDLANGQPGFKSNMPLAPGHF
T1 sequence (P23944 whole entry): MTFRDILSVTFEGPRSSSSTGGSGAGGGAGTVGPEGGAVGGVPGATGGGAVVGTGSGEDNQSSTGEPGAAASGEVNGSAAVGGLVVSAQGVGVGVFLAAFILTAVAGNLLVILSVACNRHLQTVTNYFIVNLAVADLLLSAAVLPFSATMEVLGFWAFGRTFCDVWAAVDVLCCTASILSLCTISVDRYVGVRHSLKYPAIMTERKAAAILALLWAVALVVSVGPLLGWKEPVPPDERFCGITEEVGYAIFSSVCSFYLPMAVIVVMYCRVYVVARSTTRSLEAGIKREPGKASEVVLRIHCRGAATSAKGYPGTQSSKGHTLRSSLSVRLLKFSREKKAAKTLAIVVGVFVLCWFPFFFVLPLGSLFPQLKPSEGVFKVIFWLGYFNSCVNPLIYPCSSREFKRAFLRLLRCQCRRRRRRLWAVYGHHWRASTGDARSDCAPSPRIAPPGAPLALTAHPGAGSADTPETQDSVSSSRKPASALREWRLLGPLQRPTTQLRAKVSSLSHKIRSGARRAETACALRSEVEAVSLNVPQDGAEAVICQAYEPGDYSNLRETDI
T1 sequence (P43140 whole entry): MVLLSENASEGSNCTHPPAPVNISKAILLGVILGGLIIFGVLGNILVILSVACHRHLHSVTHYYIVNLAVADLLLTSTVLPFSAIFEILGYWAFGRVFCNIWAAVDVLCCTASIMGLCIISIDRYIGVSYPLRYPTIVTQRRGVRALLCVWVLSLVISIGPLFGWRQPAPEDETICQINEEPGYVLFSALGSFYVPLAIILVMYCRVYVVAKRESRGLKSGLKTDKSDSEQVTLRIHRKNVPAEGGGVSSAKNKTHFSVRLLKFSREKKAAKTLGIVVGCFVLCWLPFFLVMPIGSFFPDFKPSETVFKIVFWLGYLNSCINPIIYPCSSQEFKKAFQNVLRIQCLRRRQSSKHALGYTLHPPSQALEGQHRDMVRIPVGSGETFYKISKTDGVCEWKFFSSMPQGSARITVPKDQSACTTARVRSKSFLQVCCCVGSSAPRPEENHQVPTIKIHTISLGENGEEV

| Compound | Ki [µM] |
| --- | --- |
| C[C@H](N)[C@H](O)c1ccc(O)c(O)c1 (stereo in doubt; form 1) [LEVONORDEFRIN] | 3.6 |
| C[C@H](N)[C@H](O)c1ccc(O)c(O)c1 (stereo in doubt; form 2) [LEVONORDEFRIN] | 2315 |
| CN[C@H](C)[C@@H](O)c1ccc(O)c(O)c1 | 11 |
| C[C@H](N)[C@H](O)c1ccc(O)c(O)c1 (stereo in doubt; 1) [LEVONORDEFRIN] | 7.3 |
| CNC(C)C(O)c1ccc(O)c(O)c1 (stereo unspecified) [DIOXIFEDRINE] | 28 |
| CN[C@@H](C)[C@H](O)c1ccc(O)c(O)c1 | 146 |
